Laboratory results taken from the NIST ThermoML archive (doi:10.1016/j.jct.2016.01.002).
± gives the expanded uncertainty stated by the source.

Assay: xn = mol fraction of the nth substance listed
Conditions: 100 kPa, Liquid; for electrical conductivity: Direct current cell with electrodes; for mass density: Vibrating tube method; for viscosity: Concentric cylinders viscometry

With `[Cl][Fe]([Cl])[Cl]` [ferric chloride] + CCCCn1cc[n+](C)c1.[Cl-] the electrical conductivity (293.15 K, x1 = 0.3704) was 0.1033 ± 0.001 S/m, the electrical conductivity (293.15 K, x1 = 0.4) was 0.172 ± 0.002 S/m and the electrical conductivity (293.15 K, x1 = 0.4348) was 0.306 ± 0.003 S/m. It also gave an electrical conductivity (293.15 K, x1 = 0.4545) of 0.406 ± 0.004 S/m, an electrical conductivity (293.15 K, x1 = 0.4762) of 0.541 ± 0.005 S/m and an electrical conductivity (293.15 K, x1 = 0.5) of 0.722 ± 0.007 S/m. For the same compound, the electrical conductivity (293.15 K, x1 = 0.5238) was 0.675 ± 0.007 S/m, the electrical conductivity (293.15 K, x1 = 0.5652) was 0.626 ± 0.006 S/m and the electrical conductivity (293.15 K, x1 = 0.6) was 0.604 ± 0.006 S/m. For the same compound, the mass density (293.15 K, x1 = 0.3704) was 1279.5 ± 7.3 kg/m3, the mass density (293.15 K, x1 = 0.4) was 1299.3 ± 7.4 kg/m3 and the mass density (293.15 K, x1 = 0.4348) was 1322.8 ± 7.5 kg/m3. It also gave a mass density (293.15 K, x1 = 0.4545) of 1337.1 ± 7.6 kg/m3, a mass density (293.15 K, x1 = 0.4762) of 1352.4 ± 7.7 kg/m3 and a mass density (293.15 K, x1 = 0.5) of 1369.9 ± 7.8 kg/m3. For the same compound, the mass density (293.15 K, x1 = 0.5238) was 1391.6 ± 7.9 kg/m3, the mass density (293.15 K, x1 = 0.5652) was 1433.4 ± 8.2 kg/m3 and the mass density (293.15 K, x1 = 0.6) was 1468.1 ± 8.4 kg/m3. It also gave a viscosity (298.15 K, x1 = 0.3704) of 195.6 ± 9.6 mPa·s, a viscosity (298.15 K, x1 = 0.4) of 123 ± 5 mPa·s and a viscosity (298.15 K, x1 = 0.4348) of 70.2 ± 2.3 mPa·s. The viscosity (298.15 K, x1 = 0.4545) was 51.1 ± 1.5 mPa·s, the viscosity (298.15 K, x1 = 0.4762) was 38.7 ± 1.1 mPa·s and the viscosity (298.15 K, x1 = 0.5) was 31.2 ± 0.8 mPa·s. The viscosity (298.15 K, x1 = 0.5238) was 30.1 ± 0.8 mPa·s, the viscosity (298.15 K, x1 = 0.5652) was 28.4 ± 0.8 mPa·s and the viscosity (298.15 K, x1 = 0.6) was 27.4 ± 0.7 mPa·s. For the same compound, the electrical conductivity (298.15 K, x1 = 0.3704) was 0.1436 ± 0.0014 S/m, the electrical conductivity (298.15 K, x1 = 0.4) was 0.228 ± 0.002 S/m and the electrical conductivity (298.15 K, x1 = 0.4348) was 0.387 ± 0.004 S/m. For the same compound, the electrical conductivity (298.15 K, x1 = 0.4545) was 0.502 ± 0.005 S/m, the electrical conductivity (298.15 K, x1 = 0.4762) was 0.658 ± 0.007 S/m and the electrical conductivity (298.15 K, x1 = 0.5) was 0.864 ± 0.009 S/m. For the same compound, the electrical conductivity (298.15 K, x1 = 0.5238) was 0.809 ± 0.008 S/m, the electrical conductivity (298.15 K, x1 = 0.5652) was 0.747 ± 0.007 S/m and the electrical conductivity (298.15 K, x1 = 0.6) was 0.719 ± 0.007 S/m. The mass density (298.15 K, x1 = 0.3704) was 1275.8 ± 7.2 kg/m3, the mass density (298.15 K, x1 = 0.4) was 1295.2 ± 7.4 kg/m3 and the mass density (298.15 K, x1 = 0.4348) was 1318.7 ± 7.5 kg/m3. It also gave a mass density (298.15 K, x1 = 0.4545) of 1332.9 ± 7.6 kg/m3, a mass density (298.15 K, x1 = 0.4762) of 1348.3 ± 7.7 kg/m3 and a mass density (298.15 K, x1 = 0.5) of 1365.7 ± 7.8 kg/m3. It also gave a mass density (298.15 K, x1 = 0.5238) of 1387.4 ± 7.9 kg/m3, a mass density (298.15 K, x1 = 0.5652) of 1428.8 ± 8.2 kg/m3 and a mass density (298.15 K, x1 = 0.6) of 1463.5 ± 8.4 kg/m3. For the same compound, the electrical conductivity (303.15 K, x1 = 0.3704) was 0.192 ± 0.002 S/m, the electrical conductivity (303.15 K, x1 = 0.4) was 0.295 ± 0.003 S/m and the electrical conductivity (303.15 K, x1 = 0.4348) was 0.478 ± 0.005 S/m. For the same compound, the electrical conductivity (303.15 K, x1 = 0.4545) was 0.61 ± 0.006 S/m, the electrical conductivity (303.15 K, x1 = 0.4762) was 0.786 ± 0.008 S/m and the electrical conductivity (303.15 K, x1 = 0.5) was 1.011 ± 0.01 S/m. For the same compound, the electrical conductivity (303.15 K, x1 = 0.5238) was 0.952 ± 0.01 S/m, the electrical conductivity (303.15 K, x1 = 0.5652) was 0.878 ± 0.009 S/m and the electrical conductivity (303.15 K, x1 = 0.6) was 0.84 ± 0.008 S/m. For the same compound, the mass density (303.15 K, x1 = 0.3704) was 1271.9 ± 7.2 kg/m3, the mass density (303.15 K, x1 = 0.4) was 1291.2 ± 7.3 kg/m3 and the mass density (303.15 K, x1 = 0.4348) was 1314.4 ± 7.5 kg/m3. It also gave a mass density (303.15 K, x1 = 0.4545) of 1328.8 ± 7.6 kg/m3, a mass density (303.15 K, x1 = 0.4762) of 1343.8 ± 7.7 kg/m3 and a mass density (303.15 K, x1 = 0.5) of 1361.4 ± 7.8 kg/m3. For the same compound, the mass density (303.15 K, x1 = 0.5238) was 1383.4 ± 7.9 kg/m3, the mass density (303.15 K, x1 = 0.5652) was 1424.3 ± 8.1 kg/m3 and the mass density (303.15 K, x1 = 0.6) was 1458.4 ± 8.3 kg/m3. It also gave an electrical conductivity (308.15 K, x1 = 0.3704) of 0.25 ± 0.003 S/m, an electrical conductivity (308.15 K, x1 = 0.4) of 0.371 ± 0.004 S/m and an electrical conductivity (308.15 K, x1 = 0.4348) of 0.582 ± 0.006 S/m. It also gave an electrical conductivity (308.15 K, x1 = 0.4545) of 0.728 ± 0.007 S/m, an electrical conductivity (308.15 K, x1 = 0.4762) of 0.926 ± 0.009 S/m and an electrical conductivity (308.15 K, x1 = 0.5) of 1.18 ± 0.012 S/m. For the same compound, the electrical conductivity (308.15 K, x1 = 0.5238) was 1.105 ± 0.011 S/m, the electrical conductivity (308.15 K, x1 = 0.5652) was 1.017 ± 0.01 S/m and the electrical conductivity (308.15 K, x1 = 0.6) was 0.973 ± 0.01 S/m. It also gave a mass density (308.15 K, x1 = 0.3704) of 1268.1 ± 7.2 kg/m3, a mass density (308.15 K, x1 = 0.4) of 1287.4 ± 7.3 kg/m3 and a mass density (308.15 K, x1 = 0.4348) of 1310.2 ± 7.5 kg/m3. For the same compound, the mass density (308.15 K, x1 = 0.4545) was 1324.8 ± 7.5 kg/m3, the mass density (308.15 K, x1 = 0.4762) was 1339.7 ± 7.6 kg/m3 and the mass density (308.15 K, x1 = 0.5) was 1357.3 ± 7.7 kg/m3. It also gave a mass density (308.15 K, x1 = 0.5238) of 1378.9 ± 7.9 kg/m3, a mass density (308.15 K, x1 = 0.5652) of 1420 ± 8.1 kg/m3 and a mass density (308.15 K, x1 = 0.6) of 1454.3 ± 8.3 kg/m3. The electrical conductivity (313.15 K, x1 = 0.3704) was 0.316 ± 0.003 S/m, the electrical conductivity (313.15 K, x1 = 0.4) was 0.457 ± 0.005 S/m and the electrical conductivity (313.15 K, x1 = 0.4348) was 0.696 ± 0.007 S/m. The electrical conductivity (313.15 K, x1 = 0.4545) was 0.858 ± 0.009 S/m, the electrical conductivity (313.15 K, x1 = 0.4762) was 1.07 ± 0.011 S/m and the electrical conductivity (313.15 K, x1 = 0.5) was 1.35 ± 0.014 S/m. For the same compound, the electrical conductivity (313.15 K, x1 = 0.5238) was 1.26 ± 0.013 S/m, the electrical conductivity (313.15 K, x1 = 0.5652) was 1.16 ± 0.012 S/m and the electrical conductivity (313.15 K, x1 = 0.6) was 1.114 ± 0.011 S/m. For the same compound, the mass density (313.15 K, x1 = 0.3704) was 1264.2 ± 7.2 kg/m3, the mass density (313.15 K, x1 = 0.4) was 1283.3 ± 7.3 kg/m3 and the mass density (313.15 K, x1 = 0.4348) was 1306.5 ± 7.4 kg/m3. The mass density (313.15 K, x1 = 0.4545) was 1320.6 ± 7.5 kg/m3, the mass density (313.15 K, x1 = 0.4762) was 1335.6 ± 7.6 kg/m3 and the mass density (313.15 K, x1 = 0.5) was 1353.1 ± 7.7 kg/m3. It also gave a mass density (313.15 K, x1 = 0.5238) of 1374.5 ± 7.8 kg/m3, a mass density (313.15 K, x1 = 0.5652) of 1415.6 ± 8.1 kg/m3 and a mass density (313.15 K, x1 = 0.6) of 1449.7 ± 8.3 kg/m3. For the same compound, the electrical conductivity (318.15 K, x1 = 0.3704) was 0.394 ± 0.004 S/m, the electrical conductivity (318.15 K, x1 = 0.4) was 0.556 ± 0.006 S/m and the electrical conductivity (318.15 K, x1 = 0.4348) was 0.823 ± 0.008 S/m. The electrical conductivity (318.15 K, x1 = 0.4545) was 0.998 ± 0.01 S/m.
